Measurements as given in patent publication US7205343B2, “Stabilized bioactive preparations and method of use” (priority 1997, dated 2007).

Experiments:
Streptococcus pneumoniae = assay: Acute pneumonia model, survival after antibiotic treatment; assay type: in vivo, Male Wistar rats; details: rats inoculated intratracheally with 10^9 cfu S. pneumoniae; 10 mg ampicillin intramuscular one day after inoculation
Excerpt: Male Wistar rats […] were inoculated intratracheally with 10^9 colony forming units of Streptococcus pneumoniae. The model is an acute pneumonia model with 100% of untreated control animals dying within 4 days of inoculation.

[1] = design: species or system rats; details: Wistar, rat, in vivo
Procedure: Ampicillin concentrations in lung tissue and serum were measured for the two treatment groups in Example XV by a bioassay method. In this method, 60 μl of lung tissue homogenate, or serum obtained from the rats at various points after dosing is placed on a sterile disk. The desk is them placed on an agar plate covered with S. pneumoniae and incubated for 24 hr. […] The no-growth zones were quantitated, and concentrations of antibiotic were calculated based on a standard curve.

[2] = Surfactant adsorption/spreading at the air/water interface; assay type: physicochemical
Excerpt: Stabilized dispersions formed according to the present invention provide for enhanced surfactant spreading at the pulmonary air/water interface. In this regard, the equilibrium surface tension of dimyristoylphosphatidylcholine is ca. 22 mN/m. […] The slow adsorption for liposomes is due to the slow molecular diffusion of DMPC through the water phase. […] This rapid spreading and reduction of surface tension is indicative of what would occur upon contacting the perforated microstructures with a wetted pulmonary membrane.

[3] = Plasma insulin pharmacokinetics after LDI or IM administration (radioimmunoassay); assay type: in vivo; details: fasting rabbits
serum glucose = assay: Serum glucose levels after LDI or IM insulin administration; assay type: in vivo; details: fasting rabbits
Procedure: In the case of LDI administration, rabbits were anesthetized, intubated, placed on a respirator, and their lungs were instilled with ca. 4.5 ml/kg of perflubron. […] Control animals were injected IM with a similar dose of insulin (Humulin R).

[4] = Gentamicin biodistribution in lung lobes by immunoassay; assay type: in vivo, New Zealand white rabbits; details: rabbits; 5 mg/kg; one hour post-administration
Excerpt: Individual lobes of the lungs were collected and analyzed quantitatively for gentamicin by an immunoassay method. […] Excellent biodistribution across the lung lobes was observed following either IM or LDI administration.

Compound: CC1(C)S[C@@H]2[C@H](NC(=O)[C@H](N)c3ccccc3)C(=O)N2[C@H]1C(=O)O [Ampicillin]
- animals surviving to 10 days (Streptococcus pneumoniae): 27%
- local lung concentrations with LDI delivery relative to IM [1]: 250 times higher
- persistence of local lung concentrations with LDI delivery [1]: persisted for several days
- persistence of serum levels following LDI administration [1]: at least 4 hours
- serum ampicillin levels following IM administration ([1]; 2 h): undetectable

Compound: CCCCCCCCCCCCCC(=O)OC[C@H](COP(=O)([O-])OCC[N+](C)(C)C)OC(=O)CCCCCCCCCCCCC [DMPC, dimyristoylphosphatidylcholine]
- equilibrium surface tension [2]: ca. 22 mN/m

Compound: Human Insulin
- Cmax ([3]; IM, Humulin R, dose similar to 0.86 IU/kg, plasma insulin): 110.5 μU/ml
- AUC ([3]; IM, Humulin R, plasma insulin): 20770 μU min/ml
- Tmax ([3]; IM, Humulin R, plasma insulin): 1 h
- AUC ([3]; LDI (4.5 ml/kg perflubron), Example XI formulation, 0.86 IU/kg): 11100 μU min/ml
- Cmax ([3]; LDI (4.5 ml/kg perflubron), Example XI formulation, 0.86 IU/kg, plasma insulin): 210.4 μU/ml
- Serum glucose level (serum glucose; IM Humulin R, 0 min): 184.2 mg/dL
- Serum glucose level (serum glucose; IM Humulin R, 5 min): 253.6 mg/dL
- Serum glucose level (serum glucose; IM Humulin R, 10 min): 256.0 mg/dL
- Serum glucose level (serum glucose; IM Humulin R, 15 min): 216.8 mg/dL
- Serum glucose level (serum glucose; IM Humulin R, 30 min): 168.2 mg/dL
- Serum glucose level (serum glucose; IM Humulin R, 60 min): 82.0 mg/dL
- Serum glucose level (serum glucose; IM Humulin R, 90 min): 48.2 mg/dL
- Serum glucose level (serum glucose; IM Humulin R, 120 min): 18.0 mg/dL
- Serum glucose level (serum glucose; IM Humulin R, 150 min): 29.4 mg/dL
- Serum glucose level (serum glucose; IM Humulin R, 180 min): 28.8 mg/dL
- Serum glucose level (serum glucose; IM Humulin R, 240 min): 29.4 mg/dL
- Serum glucose level (serum glucose; IM Humulin R, 360 min): 115.8 mg/dL
- Serum glucose level (serum glucose; LDI Example XI formulation in perflubron, 0.86 IU/kg, 0 min): 175.7 mg/dL
- Serum glucose level (serum glucose; LDI Example XI formulation in perflubron, 0.86 IU/kg, 5 min): 218.8 mg/dL
- Serum glucose level (serum glucose; LDI Example XI formulation in perflubron, 0.86 IU/kg, 10 min): 211.7 mg/dL
- Serum glucose level (serum glucose; LDI Example XI formulation in perflubron, 0.86 IU/kg, 15 min): 198.2 mg/dL
- Serum glucose level (serum glucose; LDI Example XI formulation in perflubron, 0.86 IU/kg, 30 min): 143.3 mg/dL
- Serum glucose level (serum glucose; LDI Example XI formulation in perflubron, 0.86 IU/kg, 60 min): 83.2 mg/dL
- Serum glucose level (serum glucose; LDI Example XI formulation in perflubron, 0.86 IU/kg, 90 min): 38.2 mg/dL
- Serum glucose level (serum glucose; LDI Example XI formulation in perflubron, 0.86 IU/kg, 120 min): 31.2 mg/dL
- Serum glucose level (serum glucose; LDI Example XI formulation in perflubron, 0.86 IU/kg, 150 min): 31.7 mg/dL
- Serum glucose level (serum glucose; LDI Example XI formulation in perflubron, 0.86 IU/kg, 180 min): 33.4 mg/dL
- Serum glucose level (serum glucose; LDI Example XI formulation in perflubron, 0.86 IU/kg, 240 min): 49.2 mg/dL

Compound: gentamicin
- lung gentamicin concentrations following LDI relative to IM [4]: ca. 2 orders of magnitude higher
